Patent US20230104477A1, “USE OF DEHYDROASCORBIC ACID AGAINST NEMATODE INFECTION IN PLANTS” (Universiteit Gent, priority 2019, published 2023)

How the values were obtained:
[1] = system: root-knot nematode Meloidogyne graminicola; experiment: Root growth in rice after foliar spray, nematode-infected conditions (tolerance); assay type: in vivo; conditions: 14-days old rice, foliar spray 20 mM, 250 nematodes per plant
Method: Rice—Seeds of wild-type rice Oryza sativa cv. Nipponbare were obtained from USDA (GSOR-100). Seeds were germinated on wet filter paper for 4-5 days at 30° C. and seedlings were then transferred to SAP-substrate (Sand mixed with Absorbent Polymer AquaPerla®, DCM, Belgium) and further grown at 28° C., under a light regime of (day/night) 12/12. Hoagland solution was given as a source of nutrients 3 times a week.
(§1) M. graminicola originally isolated in the Philippines (Batangas) was cultured on susceptible rice plants. Second stage juveniles (J2s) were extracted using a sieve/tray extraction method and inoculation was done as described in Nahar et al., (2011). For susceptibility assays, at least two independent experiments were carried out, each time including eight plants per treatment. Twelve days after inoculation (dai), roots were stained using acid fuchsine (Nahar et al., 2011) to count galls and number of nematodes in the roots.
(§2) Reduced Ascorbic acid (AA, 20 mM), dehydroascorbic acid (DHA, 20 mM), ascorbate oxidase (AO, 20 U/ml), methyl jasmonate (MeJA, 100 μM), aminooxyacetic acid (AoA, 12.5 mM), diethyldithiocarbamic acid (DIECA, 100 μM) and ethephon (100 μM) were purchased from Sigma and dissolved in water (except MeJA that was first dissolved in a drop of ETOH) to attain the indicated concentration.
(§3) For foliar application, all chemicals were dissolved in water and 0.02% (v/v) of Tween20 as a surfactant was added prior to spraying on aerial portions of the rice plants. Control plants were sprayed with distilled water containing 0.02% Tween20. Eight plants per treatment were sprayed until run-off with 6.5 mL of solution (at 24 h prior to nematode inoculation, in cases where infected plants were used). The substrate was covered to avoid direct contact with the roots and/or nematodes.

[2] = Ascorbate measurements in shoots and roots of foliar sprayed rice; assay type: in vivo, Oryza sativa cv. Nipponbare; conditions: 24 h after foliar application; vs control plants
Method: as §3
[…] In each assay, 100 mg of crushed material was used per sample, and at least 4 biological replicates were analyzed per treatment. Reduced and oxidized AA were measured according to the method described in Ueda et al., 2013. Absorbance was monitored using a microplate reader (TECAN—Infinite200pro).

[3] = system: M. graminicola; experiment: Infection experiment with JA/ET mutant and biosynthesis inhibitors, foliar spray; assay type: in vivo, Meloidogyne graminicola; conditions: 12 days after inoculation
Method: as §1, §2, §3

[4] = system: sugar beet plants; experiment: Root and shoot growth in uninfected sugar beet plants after foliar spray; assay type: in vivo, Beta vulgaris cv. Amarok
Method: Sugar beet—seeds of cv. Amarok were germinated on moist tissue for 4-5 days at 25° C. For longer experiments seedlings were transplanted to polyvinyl-chloride (PVC) tubes containing fine soil particles. All experiments were conducted in a plant growth room at 25° C., with a 16/8 h day/night regime. The plants were fertilized by supplying Hoagland solution as a source of nutrients 3 times a week.
as §2, §3

[5] = system: Turnip mosaic virus; conditions: applied to Brassica rapa plants (Fujiwara et al., 2013); cited from earlier work
[6] = two-week old sugar beet, foliar spray, seven days later, effect not statistically significant

O=C1O[C@H]([C@@H](O)CO)C(=O)C1=O [DHA, (5R)-5-[(1S)-1,2-dihydroxyethyl]furan-2,3,4(5H)-trione]
root length ([1]; 8 DAS (7 days after inoculation)): most significant improved root length
root length ([1]; 12 DAS (11 days after inoculation)): most significant improved root length
amount of DHA in shoots [2]: significantly higher amounts of DHA
total ascorbate level in roots [2]: increased
reduction in number of galls ([3]; Osjarl (JA signalling) mutants sprayed with DHA 20 mM): 25-30%
reduction in number of galls ([3]; wild-type Nipponbare sprayed with DHA 20 mM vs unsprayed wild-type): 50-70%
general appearance of plants ([4]; sugar beet, foliar spray DHA 20 mM, throughout the experiment): looked more vigorous
root length ([4]; two-week old sugar beet, foliar spray (DHA 20 mM, AO 20 U/mL), seven days later, vs water control): significantly longer roots
fresh root weight [4, 6]: positively affected
shoot length [4, 6]: positively affected
antiviral effect [5]: antiviral effect
